The text below walks through data of US8003602B2 (priority 2006, dated 2011).

In brackets after ≈: the same amount, converted by molar mass. Structures can show the parent of a compound that is named as a salt.

Test [1] relates to methicillin resistant Staphylococcus aureus E710 (MRSA). Nature of the test: Systemic infection model (septicemia). It is filed as in vivo, Balb/C mice. Conditions: mice infected intraperitoneally with MRSA E710, administered intravenously immediately after infection. From the text: (§1) The in-vivo potency was established by protection dose (PD) determinations of the compound PM181104 for its antibiotic activity in three animal models using either male or female Balb/C mice.
(§2) The models used were the general purpose efficacy testing models and organ/tissue specific efficacy testing models. The general purpose efficacy testing models used were systemic infection model (septicemia), and localized infection model (neutropenic thigh model). The Organ/Tissue specific infection models used for efficacy testing were kidney, lung infection, and skin abscess model.
The animals were infected intraperitoneally with ˜10^8 to 10^9 cfu of an overnight grown culture of methicillin resistant Staphylococcus aureus E710 (MRSA), suspended in normal saline (0.85% sodium chloride). PM181104 solution was prepared in cremophor-ethanol formulation as described in example 14. The solution was administered intravenously at 5 mg, 2.5 mg and 1.25 mg/kg doses, immediately after infection. Each experimental group consisted of ten animals.

Test [2] deals with S. aureus E-710. The experiment in a line: Neutropenic thigh model. The class given is in vivo, Balb/C mice. Conditions: Linezolid at 25 mg/kg dose.
Text: as §1, §2
Each experimental group consisted of six animals. PM181104 was prepared in cremophor-ethanol formulation as described in example 14.

For test [3], the system named is Enterococcus faecium ATCC 47077. Nature of the test: Kidney infection model. The class given is in vivo, Balb/C mice.
Text: as §1, §2
0.2 ml of 2% λ Carrageenan was administered intravenously to Balb/C mice 7 days prior to infection. Overnight grown log phase culture of Enterococcus faecium ATCC 47077 adjusted to approximately 10^9 cfu/ml, was injected intravenously to the mice at a volume of 0.2 ml. PM181104 solution, prepared in cremophor-ethanol formulation as described in example 14, was administered intravenously to the mice at 4 hours, 24 hours and 48 hours post-infection. At 72 hours post infection, the animals were sacrificed and kidneys were harvested to determine the bacterial load. […] Linezolid (manufactured by Glenmark Pharma Ltd; Batch no: K2005028) at 25 mg/kg and Vancomycin hydrochloride (manufactured by HiMedia; Catalogue no: RM217-500 mg; Lot no: 06-0350) at 150 mg/kg dose.

The subject of test [4] is S. aureus E-710. The experiment in a line: Lung infection model. It is filed as in vivo, Balb/C mice.
Text: as §1, §2
Balb/C mice were rendered neutropenic by intraperitoneally administering 200 mg/kg cyclophosphamide four days and two days prior to infection. On the day of infection, the mice were anesthetized and infected with S. aureus E-710 log-phase culture suspension having bacterial density of approximately 10^6 to 10^7 cfu/ml. 24 and 36 hours post infection the first and second respective dose of drug was administered intravenously. 48 hours post infection, the animals were humanely euthanized and their lungs were aseptically collected to determine the viable count of bacteria. In this model, PM181104 was tested at 5 mg/kg dose prepared in cremophor-ethanol formulation as described in example 14. Two standard antibiotics viz. Linezolid (80 mg/kg single dose at 24 hours post infection) and Vancomycin (110 mg/kg, two doses at 24 and 48 hours post infection) were used as positive controls.

In test [5] the test system is methicillin resistant S. aureus E710 (MRSA). The class given is in vivo, Balb/C mice. Conditions: Linezolid at 50 mg/kg dose.
Text: as §1, §2
Balb/C mice were infected subcutaneously with approximately 10^8 cfu of an overnight grown culture of methicillin resistant S. aureus E710 (MRSA). The bacteria were suspended in 1:1 mixture of 2% cytodex beads in normal saline (0.85% sodium chloride). PM181104 was prepared in cremophor-ethanol formulation as described in example 14. The solution was administered intravenously at 2.5 mg, 5 mg and 10 mg/kg doses, two hours post infection. Each experimental group consisted of six animals. Following abscess formation the animals were sacrificed and abscess harvested to determine the viable counts. […] Linezolid (manufactured by Glenmark Pharma Ltd; Batch no: K2005028) at 50 mg/kg dose.

The subject of a further test is E. faecium (R-2). The class given is cell-based, Enterococcus faecium. Conditions: E. faecium R-2 (VRE). The text has this:
(§3) The in-vitro potency was established by minimum inhibitory concentration (MIC) determinations of the compound PM181104 against bacterial strains, by using the Macro-broth dilution method as per National Committee for Clinical Laboratory Standards (2000) guidelines [Journal of Anti-microbial Chemotherapy, 2002, 50, 125-128 (Cross Reference 8: Methods for Dilution Antimicrobial Susceptibility Tests for Bacteria that Grow Aerobically-Fifth Edition: Approved Standard M7-A5. NCCLS, Wayne, Pa., USA)]. Unless stated otherwise, Mueller-Hinton broth was used as nutrient medium for the assay. Linezolid (manufactured by Glenmark Pharma Ltd; Batch no: K2005028) was used as known standard in all in-vitro experiments. For preparation of the stock solution the compound PM181104 was dissolved in chloroform (5% of the total required volume) and diluted using methanol (95% of the total required volume).

A further test has as its system S. aureus (E710). Nature of the test: MIC, Macro-broth dilution method. The class given is cell-based, Staphylococcus aureus. Conditions: S. aureus MRSA E710.
Text: as §3

For a further test, the system named is E. faecalis ATCC 51575. It is filed as cell-based.
Text: as §3

In another test the test system is E. faecalis, ATCC 51299. It is filed as cell-based.
Text: as §3

For test [6], the system named is Staphylococcus aureus subsp. aureus ATCC 33591. The class given is cell-based. Conditions: S. aureus MRSA ATCC 33591.
Text: as §3

The subject of a further test is E. faecalis ATCC BAA 472. The experiment in a line: MIC, Macro-broth dilution method. It is filed as cell-based.
Text: as §3

The next test concerns E. faecium ATCC 51559. The class given is cell-based, Enterococcus faecium.
Text: as §3

In test [1], `CC(=O)NC[C@H]1CN(c2ccc(N3CCOCC3)c(F)c2)C(=O)O1` [Linezolid, reference compound] displayed a PD100 of 25 mg/kg. Further, the “decrease in viable counts in thigh tissue, comparison with PM181104” value in the test with S. aureus E-710 [2] is “comparable”. For the same compound, the “decrease in bacterial count in kidneys, comparison with PM181104” value in [3] (Linezolid at 25 mg/kg) was “comparable”. The “activity profile in lung infection, comparison with PM181104” value in the test with S. aureus E-710 [4] (Linezolid 80 mg/kg single dose at 24 hours post infection) is “comparable”. Besides, the “decrease in bacterial count in abscess, comparison with PM181104” value in test [5] is “comparable”.

In the case of `CN[C@H](CC(C)C)C(=O)N[C@H]1C(=O)N[C@@H](CC(N)=O)C(=O)N[C@H]2C(=O)N[C@H]3C(=O)N[C@H](C(=O)N[C@H](C(=O)O)c4cc(O)cc(O)c4-c4cc3ccc4O)[C@H](O)c3ccc(c(Cl)c3)Oc3cc2cc(c3O[C@@H]2O[C@H](CO)[C@@H](O)[C@H](O)[C@H]2O[C@H]2C[C@](C)(N)[C@H](O)[C@H](C)O2)Oc2ccc(cc2Cl)[C@H]1O` [Vancomycin hydrochloride, reference compound], in test [3] (Vancomycin hydrochloride at 150 mg/kg dose), the “decrease in bacterial count in kidneys, comparison with PM181104” value is given as “comparable”. In addition, the “activity profile in lung infection” value in the test on S. aureus E-710 [4] (Vancomycin 110 mg/kg, two doses at 24 and 48 hours post infection) is on record as “bactericidal profile”.

For the compound `C=C(NC(=O)C(=C)NC(=O)C1CCCN1C(=O)c1nc(-c2ccc(-c3nc(C(=O)NC(=C)C(=O)NC(C)C(N)=O)cs3)c(-c3csc(C4Cc5nc(cs5)C(=O)NC(Cc5ccccc5)C5=NC(CS5)C(=O)NC(Cc5ccc(OC(=O)CCC)cc5)C(=O)N5CCCC5c5nc(cs5)C(=O)N4)n3)n2)oc1C)C(N)=O` (stereo not shown) [Butyric Acid Ester Derivative of PM181104], the MIC (as a rule, the smallest concentration in the dilution series that meets the test's criterion for growth inhibition) with E. faecium (R-2) was determined as 2.5 µg/mL (≈ 1.58 µM).

On to `C=C(NC(=O)C(=C)NC(=O)C1CCCN1C(=O)c1nc(-c2ccc(-c3nc(C(=O)NC(=C)C(=O)NC(C)C(N)=O)cs3)c(-c3csc(C4Cc5nc(cs5)C(=O)NC(Cc5ccccc5)C5=NC(CS5)C(=O)NC(Cc5ccc(OC(=O)c6cccnc6)cc5)C(=O)N5CCCC5c5nc(cs5)C(=O)N4)n3)n2)oc1C)C(N)=O` (stereo not shown) [Nicotinic Acid Ester Derivative of PM181104], for which the MIC was more than 10 µg/mL against S. aureus (E710); 0.312 µg/mL (≈ 0.192 µM) against E. faecalis ATCC 51575; 0.312 µg/mL (≈ 0.192 µM) in the test with E. faecalis, ATCC 51299; more than 10 µg/mL in test [6]; 0.312 µg/mL (≈ 0.192 µM) in the test on E. faecalis ATCC BAA 472; 0.312 µg/mL (≈ 0.192 µM) against E. faecium (R-2). Also, in the test on E. faecium ATCC 51559, the MIC was found to be 0.156 µg/mL (≈ 0.0962 µM).

In the test with E. faecium (R-2), `C=C(NC(=O)C(=C)NC(=O)C1CCCN1C(=O)c1nc(-c2ccc(-c3nc(C(=O)NC(=C)C(=O)NC(C)C(N)=O)cs3)c(-c3csc(C4Cc5nc(cs5)C(=O)NC(Cc5ccccc5)C5=NC(CS5)C(=O)NC(Cc5ccc(OC(=O)CCCCCCCCCCCCCCCCC)cc5)C(=O)N5CCCC5c5nc(cs5)C(=O)N4)n3)n2)oc1C)C(N)=O` (stereo not shown) [Stearic Acid Ester Derivative of PM181104] had an MIC of 1.25 µg/mL (≈ 0.701 µM).
